According to patent US11345666B2, “Phenyl and pyridinyl substituted imidazoles as modulators of RORγT” (Janssen Pharmaceutica NV, priority 2018, dated 2022):

Assays:
[1] = molecular target: human RORγt ligand binding domain (RORγt LBD) (Homo sapiens (Human), UniProt P51449); test: RORγt ThermoFluor assay
Excerpt: ThermoFluor® is a fluorescence based assay that estimates ligand binding affinities by measuring the effect of a ligand on protein thermal stability (Pantoliano, M. W., Petrella, E. C., Kwasnoski, J. D., Lobanov, V. S., Myslik, J., Graf, E., Carver, T., Asel, E., Springer, B. A., Lane, P., and Salemme, F. R. (2001) High-density miniaturized thermal shift assays as a general strategy for drug discovery. J Biomol Screen 6, 429-40, and Matulis, D., Kranz, J. K., Salemme, F. R., and Todd, M. J. (2005) Thermodynamic stability of carbonic anhydrase: measurements of binding affinity and stoichiometry using ThermoFluor. Biochemistry 44, 5258-66). This approach is applicable to a wide variety of systems, and rigorous in theoretical interpretation through quantitation of equilibrium binding constants (KD).
The shift in the melting point described as a ΔTm is proportional to the concentration and affinity of the ligand.
RORγt ThermoFluor® Assay Construct
Nucleotides 850-1635 (SEQ ID NO:2) coding for the wild type human RORγt ligand binding domain (RORγt LBD) were cloned into the pHIS 1 vector, a modified pET E. coli expression vector (Accelagen, San Diego), containing an in-frame N-terminal His-tag and a TurboTEV protease cleavage site (ENLYFQG, SEQ ID NO:3) upstream of the cloned insert sequence. The amino acid sequence for the RORγt construct used in the Thermofluor® assay is shown as SEQ ID NO:4.
ThermoFluor® experiments were carried out using instruments owned by Janssen Research and Development, L.L.C. through its acquisition of 3-Dimensional Pharmaceuticals, Inc. 1,8-ANS (Invitrogen) was used as a fluorescent dye. Protein and compound solutions are dispensed into black 384-well polypropylene PCR microplates (Abgene) and overlayed with silicone oil (1 μL, Fluka, type DC 200) to prevent evaporation.
Bar-coded assay plates are robotically loaded onto a thermostatically controlled PCR-type thermal block and then heated at a typical ramp-rate of 1° C./min for all experiments. Fluorescence was measured by continuous illumination with UV light (Hamamatsu LC6) supplied via fiber optic and filtered through a band-pass filter (380-400 nm; >6 OD cutoff). Fluorescence emission of the entire 384-well plate was detected by measuring light intensity using a CCD camera (Sensys, Roper Scientific) filtered to detect 500±25 nm, resulting in simultaneous and independent readings of all 384 wells. Images were collected at each temperature, and the sum of the pixel intensity in a given area of the assay plate was recorded versus temperature. Reference wells contained RORγt without compounds, and the assay conditions were as follows: • 0.065 mg/mL RORγt • 60 μM 1,8-ANS • 100 mM Hepes, pH 7.0 • 10 mM NaCl • 2.5 mM GSH • 0.002% Tween-20
Project compounds were arranged in a pre-dosed mother plate (Greiner Bio-one) wherein compounds are serially diluted in 100% DMSO by 1:2 from a high concentration of 10 mM over 12 columns within a series (column 12 is a reference well containing DMSO, no compound). The compounds were robotically dispensed directly into assay plates (1×=46 nL) using a Hummingbird capillary liquid handling instrument (Digilab). Following compound dispense, protein and dye in buffer was added to achieve the final assay volume of 3 μL, followed by 1 μL of silicone oil.
The binding affinity was estimated as described previously (Matulis, D., Kranz, J. K., Salemme, F. R., and Todd, M. J. (2005) Thermodynamic stability of carbonic anhydrase: measurements of binding affinity and stoichiometry using ThermoFluor®. Biochemistry 44, 5258-66) using the following thermodynamic parameters of protein unfolding: […]

full-length human RORγt = full-length human RORγt (Homo sapiens (Human), UniProt P51449); test: RORγt (full-length human) reporter assay, conditions A or B; format: cell-based; details: for inhibition at 3 µM: 3 μM compound concentration (*); for inhibition at 3 µM / inhibition at 1 µM: read-out: RORγt (FL) Reporter Assay A or B, % inhibition; for IC50: HEK293T cells, read-out: RORγt (FL) Reporter Assay A or B, IC50; for inhibition at 1 µM: 1 μM compound concentration (***); for inhibition at 0.67 µM: read-out: RORγt (FL) Reporter Assay A or B, % inhibition, 0.67 μM compound concentration (****)
Excerpt: RORγt (Full-Length Human) Reporter Assay:
Cells used in this assay were transiently co-transfected with three different plasmids, one expressing the GAL4-DNA binding domain (DBD)-RORγt fusion protein under control of a CMV promoter (NH2-Gal4-DBD:RORC—COOH in pCMV-BD, Stratagene #211342), and two reporter plasmids—the firefly luciferase reporter under control of a GAL4 promoter (pFR-Luc 2×GAL4) and Renilla luciferase reporter under control of CMV promoter (pRL-CMV, Promega #E2261). […] HEK293T cells were plated at 35,000 per well in 96-well plate in medium of DMEM with 10% FBS. After 18-22 hours incubation, the transfection was carried out by using a PEI solution with 170.5 ng total DNA/well (50 ng pCMV-BD-ROR plus 20 ng of pFR-Luc reporter and 0.5 ng of pRL-CMV reporter plus 100 ng Carrier DNA (Clontech #630440) for each well). 4-6 hours after transfection, cells were treated with compounds for overnight in the medium with final concentration of FBS 1.3% and DMSO 0.1%. After overnight (16 to 20 hours) incubation, media were removed and cells were lysed with […] Glo Lysis Buffer (Promega) for 10-15 minutes followed by 10 minute incubation with 50 μL Dual Glo reagent (Promega) at room temperature. Firefly luciferase luminescence was measured using a BMG Pherastar plate reader. To each well, 50 μL Stop and Glo reagent was added and incubated for 10 minutes at room temperature. Renilla luminescence was measured using a BMG Pherastar plate reader. To calculate the effect of compounds on RORγt activity, firefly values were normalized against values of DMSO only and values of reference compound at saturating concentration, then further normalized against Renilla signals. IC50s were generated by plotting final Renilla normalized data against compound concentration and percent inhibition was calculated against DMSO control.
Cells used in this assay were transiently co-transfected with three different plasmids, one expressing the GAL4-DNA binding domain (DBD)-RORγt fusion protein under control of a CMV promoter (NH2-Gal4-DBD:RORC—COOH in pCMV-BD, Stratagene #211342), and two reporter plasmids—the firefly luciferase reporter under control of a GAL4 promoter (pFR-Luc 2×GAL4) and Renilla luciferase reporter under control of CMV promoter (pRL-CMV, Promega #E2261). […] HEK293T cells were plated at 8750 cells per well in 384-well plate in medium of DMEM with 10% FBS. After 18-22 hours incubation, the transfection was carried out by using a PEI solution with 42.6 ng total DNA/well (12.5 ng pCMV-BD-ROR plus 5 ng of pFR-Luc reporter and 0.125 ng of pRL-CMV reporter plus 25 ng Carrier DNA (Clontech #630440) for each well). 4-6 hours after transfection, cells were treated with compounds for overnight in the medium with final concentration of FBS 1.3% and DMSO 0.1%. After overnight (16 to 20 hours) incubation, media were removed and cells were lysed with 20 μL Glo Lysis Buffer (Promega) for 10-15 minutes followed by 10 minute incubation with 20 μL Dual Glo reagent (Promega) at room temperature. Firefly luciferase luminescence was measured using a BMG Pherastar plate reader. To each well, 20 μL Stop and Glo reagent was added and incubated for 10 minutes at room temperature. Renilla luminescence was measured using a BMG Pherastar plate reader. To calculate the effect of compounds on RORγt activity, firefly values were normalized against values of DMSO only and values of reference compound at saturating concentration, then further normalized against Renilla signals. IC50s were generated by plotting final Renilla normalized data against compound concentration and percent inhibition was calculated against DMSO control.

Chain of human RORγt ligand binding domain (RORγt LBD) (P51449 other isoform, or with tags, fused parts or gaps): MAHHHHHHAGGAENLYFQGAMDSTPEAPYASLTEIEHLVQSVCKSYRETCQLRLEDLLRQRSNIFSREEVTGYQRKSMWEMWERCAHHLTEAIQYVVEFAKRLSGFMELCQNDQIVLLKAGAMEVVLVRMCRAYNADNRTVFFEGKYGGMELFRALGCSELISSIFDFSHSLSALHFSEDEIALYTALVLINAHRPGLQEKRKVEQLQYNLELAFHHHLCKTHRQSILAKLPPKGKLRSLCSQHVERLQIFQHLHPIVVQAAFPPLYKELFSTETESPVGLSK
Chain of full-length human RORγt (P51449 other isoform, or with tags, fused parts or gaps): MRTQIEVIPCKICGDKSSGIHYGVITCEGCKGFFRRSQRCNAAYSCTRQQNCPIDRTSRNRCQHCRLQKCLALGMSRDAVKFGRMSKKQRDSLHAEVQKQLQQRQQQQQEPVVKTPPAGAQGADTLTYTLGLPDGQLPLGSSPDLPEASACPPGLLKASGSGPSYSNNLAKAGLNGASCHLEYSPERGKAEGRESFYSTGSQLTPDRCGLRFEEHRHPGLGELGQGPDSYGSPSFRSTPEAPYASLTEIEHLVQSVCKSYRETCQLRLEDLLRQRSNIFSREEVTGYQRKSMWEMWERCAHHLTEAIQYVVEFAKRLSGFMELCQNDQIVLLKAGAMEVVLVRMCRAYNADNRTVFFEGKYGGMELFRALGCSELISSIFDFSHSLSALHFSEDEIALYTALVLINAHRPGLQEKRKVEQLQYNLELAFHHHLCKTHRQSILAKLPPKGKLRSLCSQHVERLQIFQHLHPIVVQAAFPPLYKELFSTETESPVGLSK

| Compound | Kd [1] [nM] | inhibition at 3 µM (full-length human RORγt) [%] | IC50 (full-length human RORγt) [nM] | inhibition at 1 µM (full-length human RORγt) [%] | inhibition at 0.67 µM (full-length human RORγt) [%] | inhibition at 2 µM (full-length human RORγt; read-out: RORγt (FL) Reporter Assay A or B, % inhibition, 2 μM compound concentration (**)) [%] |
| --- | --- | --- | --- | --- | --- | --- |
| CCc1nc(C(=O)NC[C@]2(O)CC[C@@H](S(C)(=O)=O)CC2)c(Cl)n1-c1ncc(C[C@H](C)C(F)(F)F)cc1OC(F)F (single isomer, unassigned) [Example 71, 5-Chloro-1-(3-(difluoromethoxy)-5-((S*)-3,3,3-trifluoro-2-methylpropyl)pyridin-2-yl)-2-ethyl-N-(((1s,4R)-1-hydroxy-4-(methylsulfonyl)cyclohexyl)methyl)-1H-imidazole-4-carboxamide] | 28 | 90 | 160 |  |  |  |
| CCc1nc(C(=O)NC[C@H]2CC[C@H](S(C)(=O)=O)CC2)c(Cl)n1-c1ncc(C[C@H](C)C(F)(F)F)cc1OC(F)F (single isomer, unassigned) [Example 72, 5-Chloro-1-(3-(difluoromethoxy)-5-((S*)-3,3,3-trifluoro-2-methylpropyl)pyridin-2-yl)-2-ethyl-N-(((1r,4S)-4-(methylsulfonyl)cyclohexyl)methyl)-1H-imidazole-4-carboxamide] | 9.8 | 98 | 75 |  |  |  |
| CCc1nc(C(=O)NC[C@H]2CC[C@H](S(C)(=O)=O)CC2)c(C)n1-c1ncc(C[C@H](C)C(F)(F)F)cc1OC(F)F (single isomer, unassigned) [Example 73, 1-(3-(Difluoromethoxy)-5-((S*)-3,3,3-trifluoro-2-methylpropyl)pyridin-2-yl)-2-ethyl-5-methyl-N-(((1r,4S)-4-(methylsulfonyl)cyclohexyl)methyl)-1H-imidazole-4-carboxamide] | 38 |  | 110 | 80 |  |  |
| CCc1nc(C(=O)NC[C@H]2CC[C@H](S(C)(=O)=O)CC2)c(Cl)n1-c1ncc(C[C@@H](C)C(F)(F)F)cc1OC(F)F (single isomer, unassigned) [Example 78, 5-Chloro-1-(3-(difluoromethoxy)-5-((R*)-3,3,3-trifluoro-2-methylpropyl)pyridin-2-yl)-2-ethyl-N-(((1r,4R)-4-(methylsulfonyl)cyclohexyl)methyl)-1H-imidazole-4-carboxamide] | 7 |  | 96 | 94 |  |  |
| CCc1nc(C(=O)NC[C@]2(O)CC[C@@H](S(C)(=O)=O)CC2)c(Cl)n1-c1ncc(C[C@@H](C)C(F)(F)F)cc1OC(F)F (single isomer, unassigned) [Example 79, 5-Chloro-1-(3-(difluoromethoxy)-5-((R*)-3,3,3-trifluoro-2-methylpropyl)pyridin-2-yl)-2-ethyl-N-(((1s,4S)-1-hydroxy-4-(methylsulfonyl)cyclohexyl)methyl)-1H-imidazole-4-carboxamide] | 26 | 84 | 220 |  |  |  |
| CCc1nc(C(=O)NC[C@H]2CC[C@H](S(C)(=O)=O)CC2)c(C)n1-c1ncc(C[C@@H](C)C(F)(F)F)cc1OC(F)F (single isomer, unassigned) [Example 80, 1-(3-(Difluoromethoxy)-5-((R*)-3,3,3-trifluoro-2-methylpropyl)pyridin-2-yl)-2-ethyl-5-methyl-N-(((1r,4R)-4-(methylsulfonyl)cyclohexyl)methyl)-1H-imidazole-4-carboxamide] | 58 | 113 | 54 |  |  |  |
| CCc1nc(C(=O)NC[C@H]2CC[C@H](S(C)(=O)=O)CC2)c(Cl)n1-c1c(F)cc(C[C@H](C)C(F)(F)F)cc1F (single isomer, unassigned) [Example 86, 5-Chloro-1-(2,6-difluoro-4-((S*)-3,3,3-trifluoro-2-methylpropyl)phenyl)-2-ethyl-N-(((1r,4S)-4-(methylsulfonyl)cyclohexyl)methyl)-1H-imidazole-4-carboxamide] | 5.3 |  | 23 |  | 68 |  |
| CCc1nc(C(=O)NC[C@H]2CC[C@H](S(C)(=O)=O)CC2)c(Cl)n1-c1c(F)cc(C[C@@H](C)C(F)(F)F)cc1F (single isomer, unassigned) [Example 87, 5-Chloro-1-(2,6-difluoro-4-((R*)-3,3,3-trifluoro-2-methylpropyl)phenyl)-2-ethyl-N-(((1r,4R)-4-(methylsulfonyl)cyclohexyl)methyl)-1H-imidazole-4-carboxamide] | 3.8 |  | 18 |  | 66 |  |
| CCc1nc(C(=O)NC[C@]2(O)CC[C@@H](S(C)(=O)=O)CC2)c(Cl)n1-c1ccc(CC(C)C)cc1OC (single isomer, unassigned) [Example 91, 5-Chloro-2-ethyl-N-(((1s,4S)-1-hydroxy-4-(methylsulfonyl)cyclohexyl)methyl)-1-((S*)-4-isobutyl-2-methoxyphenyl)-1H-imidazole-4-carboxamide] | 620 |  | 360 |  |  | 42 |
